The target of this test is PIK3CB;PIK3CG;PIK3CD;PIK3CA (human) (UniProt P48736). Briefly: Enzyme Assay.

A word on the IC50: it is the concentration needed to halve the response being measured. Lower therefore signals greater potency in that assay.

Consider `O=C(c1nn(-c2cccc(OCCn3ccnc3)c2)c2c1CS(=O)(=O)c1ccccc1-2)N1CCOCC1`, for which the IC50 turned out to be 179 nM. `CC(C)(C)OC(=O)N1CCCC(n2nc(C(=O)N3CCOCC3)c3c2-c2ccccc2S(=O)(=O)C3)C1` (centres undefined) showed an IC50 of 1540 nM. In the case of `COc1ccc2c(c1)S(=O)(=O)Cc1c(C(=O)N3CCOCC3)nn([C@H]3CCCN(CCN4CC(F)(F)C4)C3)c1-2` it was 15 nM; in that of `O=C(c1nn(-c2ccccc2)c2c1C(Cc1ccccc1)S(=O)(=O)c1ccccc1-2)N1CCOCC1` (centres undefined), 2480 nM. `O=C(c1nn(-c2cccc(Cl)c2)c2c1CS(=O)(=O)c1ccccc1-2)N1CCOCC1` came in with an IC50 of 440 nM. Against the preceding compound, the IC50 is about 5.6-fold lower. In the case of `COC1CCCN(C(=O)c2cccc(-n3nc(C(=O)N4CCOCC4)c4c3-c3ccccc3S(=O)(=O)C4)c2)C1` (centres undefined) it was 246 nM; in that of `CCCCn1nc(C(=O)N2CCOCC2)c2c1-c1ccccc1S(=O)(=O)C2`, 377 nM; in that of `CN1CCC(OCCN2CCC[C@H](n3nc(C(=O)N4CCOCC4)c4c3-c3ccccc3S(=O)(=O)C4)C2)CC1`, 20 nM. In the case of `COC1CCN(Cc2ccc(-n3nc(C(=O)N4CCOCC4)c4c3-c3ccccc3S(=O)(=O)C4)cc2)CC1` it was 249 nM. For the compound `CCc1noc(Cn2nc(C(=O)N3CCOCC3)c3c2-c2ccccc2S(=O)(=O)C3)n1`, the IC50 is 1920 nM.

The compound `O=C(c1nn(C2CCCN(CC3CCOC3)C2)c2c1CS(=O)(=O)c1c(F)cccc1-2)N1CCOCC1` (centres undefined) showed an IC50 of 21 nM. Against the preceding compound, the IC50 is about 91-fold lower.

As to `O=C(c1nn(-c2ccccc2)c2c1CS(=O)(=O)c1cc(Br)ccc1-2)N1CCOCC1`, the IC50 was 904 nM. The compound `O=C(c1nn(-c2cccnc2)c2c1CS(=O)(=O)c1ccccc1-2)N1CCOCC1` returned an IC50 of 1130 nM. The compound `CN(C)c1cccc(-n2nc(C(=O)N3CCOCC3)c3c2-c2ccccc2S(=O)(=O)C3)c1` came in with an IC50 of 4720 nM. With `O=C(c1nn([C@H]2CCCN(Cc3ccncc3)C2)c2c1CS(=O)(=O)c1ccccc1-2)N1CCOCC1` the figure was 45 nM.

Take `COCCN1CCC[C@H](n2nc(C(=O)N3CCOCC3)c3c2-c2ccccc2S(=O)(=O)C3)C1`: the IC50 was found to be 40 nM. In the case of `CN1CCCC(Cn2nc(C(=O)N3CCOCC3)c3c2-c2ccccc2S(=O)(=O)C3)C1` (centres undefined) it was 6050 nM; in that of `O=C(c1nn(C2CCCN(CC3CCOC3)C2)c2c1CS(=O)(=O)c1ccccc1-2)N1CCOCC1` (centres undefined), 98 nM; in that of `O=C(c1nn(-c2cccc(Br)c2)c2c1CS(=O)(=O)c1ccccc1-2)N1CCOCC1`, 616 nM. With `O=C(c1nn(-c2cccc(-c3nccs3)c2)c2c1CS(=O)(=O)c1ccccc1-2)N1CCOCC1`, the IC50 stood at 4220 nM. Compound `CS(=O)(=O)Nc1ccc2c(c1)-c1c(c(C(=O)N3CCOCC3)nn1-c1ccccc1)CS2(=O)=O` yielded an IC50 of 1310 nM. With `O=C(c1nn(-c2ccccn2)c2c1CS(=O)(=O)c1ccccc1-2)N1CCOCC1` the figure was 1600 nM; with `CN1CCCC(n2nc(C(=O)N3CCOCC3)c3c2-c2ccccc2S(=O)(=O)C3)C1` (centres undefined), 772 nM; with `COc1cccc2c1S(=O)(=O)Cc1c(C(=O)N3CCOCC3)nn(-c3ccccc3)c1-2`, 459 nM.

As to `Cc1cccc(-n2nc(C(=O)N3CCOCC3)c3c2-c2ccccc2S(=O)(=O)C3)c1`, the IC50 worked out at 926 nM. This IC50 is about 2-fold higher than that of the compound before. In the case of `CN1c2c(C(=O)N3CCOCC3)nn(-c3ccccc3)c2-c2ccccc2S1(=O)=O` it was 3460 nM. For the compound `COCCN1CCCC(n2nc(C(=O)N3CCOCC3)c3c2-c2ccccc2S(=O)(=O)C3)CC1` (centres undefined), the IC50 worked out at 478 nM.

Turning to `COCC(=O)N1CCC[C@H](n2nc(C(=O)N3CCOCC3)c3c2-c2ccccc2S(=O)(=O)C3)C1`, the IC50 came to 261 nM. With `COc1ccc2c(c1)-c1c(c(C(=O)N3CCOCC3)nn1-c1ccccc1)CS2(=O)=O` the figure was 3350 nM.

`O=C(c1nn(-c2ccccc2)c2c1CS(=O)(=O)c1ccccc1-2)N1CCOCC1` yielded an IC50 of 244 nM. With `O=C(c1nn([C@@H]2CCCN(C3CCOCC3)CC2)c2c1CS(=O)(=O)c1ccccc1-2)N1CCOCC1` the figure was 104 nM. `CN(C)c1ccc2c(c1)S(=O)(=O)Cc1c(C(=O)N3CCOCC3)nn(-c3ccccc3)c1-2` came in with an IC50 of 5020 nM.

`COCc1ccc(-n2nc(C(=O)N3CCOCC3)c3c2-c2ccccc2S(=O)(=O)C3)cc1` displayed an IC50 of 667 nM. Take `O=C(c1nn(C2CCN(CCN3CCC(F)CC3)C2)c2c1CS(=O)(=O)c1ccccc1-2)N1CCOCC1` (centres undefined): the IC50 came out at 149 nM. On to `Cn1cc(-n2nc(C(=O)N3CCOCC3)c3c2-c2ccccc2S(=O)(=O)C3)ccc1=O`, for which the IC50 came out at 2950 nM. This IC50 lies about 20-fold higher than the previous one. In the case of `O=C(c1nn(C2CCCN(CCC3CCOCC3)C2)c2c1CS(=O)(=O)c1ccccc1-2)N1CCOCC1` (centres undefined) it was 54 nM; in that of `O=C(c1nn(-c2ccc(F)cc2)c2c1CS(=O)(=O)c1ccccc1-2)N1CCOCC1`, 373 nM. With `O=C(c1nn([C@H]2CCCN(CCN3CCOCC3)C2)c2c1CS(=O)(=O)c1ccccc1-2)N1CCOCC1`, the IC50 was 16 nM.

The compound `COCCN1CCC[C@@H](n2nc(C(=O)N3CCOCC3)c3c2-c2ccccc2S(=O)(=O)C3)C1` had an IC50 of 3550 nM. In the case of `Cn1nc(C(=O)N2CCOCC2)c2c1-c1ccccc1S(=O)(=O)C2Cc1ccccc1` (centres undefined), the IC50 was found to be 5270 nM. `O=C(c1nn(-c2cccc(Cn3cccn3)c2)c2c1CS(=O)(=O)c1ccccc1-2)N1CCOCC1`: the IC50 turned out to be 488 nM. As to `O=C(c1nn(C2CCCN(CCC(C(F)(F)F)C(F)(F)F)C2)c2c1CS(=O)(=O)c1ccccc1-2)N1CCOCC1` (centres undefined), the IC50 turned out to be 679 nM. With `O=C(c1nn(C2CCCNC2)c2c1CS(=O)(=O)c1ccccc1-2)N1CCOCC1` (centres undefined) the figure was 3010 nM. `CN(C)Cc1ccc(-n2nc(C(=O)N3CCOCC3)c3c2-c2ccccc2S(=O)(=O)C3)cc1`: the IC50 is 43 nM. Take `O=C(c1nn(N2CCOCC2)c2c1C(F)S(=O)(=O)c1ccccc1-2)N1CCOCC1` (centres undefined): the IC50 is 9800 nM. In the case of `O=C(c1nn(C2CCCN(CCO)C2)c2c1CS(=O)(=O)c1ccccc1-2)N1CCOCC1` (centres undefined) it was 815 nM.

As for `COCCOCCN1CCCC(n2nc(C(=O)N3CCOCC3)c3c2-c2ccccc2S(=O)(=O)C3)C1` (centres undefined), the IC50 is 635 nM.

Consider `O=C(c1nn(-c2ccc(CN3CC(F)C3)cc2)c2c1CS(=O)(=O)c1ccccc1-2)N1CCOCC1`, for which the IC50 was 229 nM. Consider `Cc1ccccc1-n1nc(C(=O)N2CCOCC2)c2c1-c1ccccc1S(=O)(=O)C2`, for which the IC50 was found to be 2280 nM. This IC50 is about 10-fold higher than that of the compound before. The compound `Cc1nnc(-c2cccc(-n3nc(C(=O)N4CCOCC4)c4c3-c3ccccc3S(=O)(=O)C4)c2)o1` displayed an IC50 of 1200 nM.

`NC(=O)c1cccc(-n2nc(C(=O)N3CCOCC3)c3c2-c2ccccc2S(=O)(=O)C3)c1` came in with an IC50 of 957 nM. In the case of `O=C(c1nn(-c2ccccc2)c2c1CS(=O)(=O)c1sccc1-2)N1CCOCC1` it was 1700 nM; in that of `O=C(c1nn(C2CCCN(CCC(F)(F)F)C2)c2c1CS(=O)(=O)c1ccccc1-2)N1CCOCC1` (centres undefined), 149 nM. With `O=C(c1nn(C2CCOCC2)c2c1CS(=O)(=O)c1sccc1-2)N1CCOCC1` the figure was 824 nM; with `CN1CCN(C(=O)c2ccc3c(c2)-c2c(c(C(=O)N4CCOCC4)nn2-c2ccccc2)CS3(=O)=O)CC1`, 4280 nM; with `COCCN(C)Cc1ccc(-n2nc(C(=O)N3CCOCC3)c3c2-c2ccccc2S(=O)(=O)C3)cc1`, 113 nM. With `COc1cccc2c1S(=O)(=O)Cc1c(C(=O)N3CCOCC3)nn([C@H]3CCCN(CCN4CC(F)C4)C3)c1-2` the figure was 62 nM; with `COc1ccc2c(c1)S(=O)(=O)Cc1c(C(=O)N3CCOCC3)nn([C@H]3CCCN(C4CCCOC4)C3)c1-2` (some centres undefined), 24 nM. As for `CC1COCCN1Cc1ccc(-n2nc(C(=O)N3CCOCC3)c3c2-c2ccccc2S(=O)(=O)C3)cc1` (centres undefined), the IC50 stood at 180 nM.

As for `O=C(c1nn([C@H]2CCCN(Cc3cccnc3)C2)c2c1CS(=O)(=O)c1ccccc1-2)N1CCOCC1`, the IC50 was found to be 85 nM. In the case of `O=C(c1nn(-c2ccc3nn(Cc4ccccc4)cc3c2)c2c1CS(=O)(=O)c1ccccc1-2)N1CCOCC1` it was 2080 nM. In the case of `O=C(c1nn(-c2ccc(Cl)cc2)c2c1CS(=O)(=O)c1ccccc1-2)N1CCOCC1` it was 895 nM; in that of `O=C(c1nn(-c2ccccc2)c2c1CS(=O)(=O)c1ccsc1-2)N1CCOCC1`, 643 nM. The compound `CC(=O)NCCN1CCC[C@H](n2nc(C(=O)N3CCOCC3)c3c2-c2ccccc2S(=O)(=O)C3)C1` yielded an IC50 of 105 nM. Compared with the last compound, the IC50 is about 6.1-fold lower. In the case of `O=C(c1ccoc1)N1CCC[C@H](n2nc(C(=O)N3CCOCC3)c3c2-c2ccccc2S(=O)(=O)C3)C1` it was 750 nM.

`O=C(c1nn(-c2ccc(CN3CCCC3)cc2)c2c1CS(=O)(=O)c1ccccc1-2)N1CCOCC1` came in with an IC50 of 285 nM.

As for `Cn1nc(C(=O)N2CCOCC2)c2c1-c1ccccc1S(=O)(=O)C2`, the IC50 turned out to be 1750 nM. This IC50 is about 6.1-fold higher than that of the compound before. With `O=C(c1nn([C@@H]2CCCN(CC3CCOCC3)C2)c2c1CS(=O)(=O)c1ncccc1-2)N1CCOCC1` the figure was 830 nM; with `O=C(c1nn(C2CCN(CC3CCOC3)C2)c2c1CS(=O)(=O)c1ccccc1-2)N1CCOCC1` (centres undefined), 353 nM. With `O=C(c1nn(C2CCCCC2)c2c1CS(=O)(=O)c1sccc1-2)N1CCOCC1` the figure was 302 nM. Take `COCCCN1CCC(n2nc(C(=O)N3CCOCC3)c3c2-c2ccccc2S(=O)(=O)C3)C1` (centres undefined): the IC50 turned out to be 923 nM. Take `COc1ccc2c(c1)-c1c(c(C(=O)N3CCOCC3)nn1[C@H]1CCCN(CCN3CCOCC3)C1)CS2(=O)=O`: the IC50 came out at 28 nM. In turn, `CC1(C)CN(CCN2CCC[C@H](n3nc(C(=O)N4CCOCC4)c4c3-c3ccccc3S(=O)(=O)C4)C2)CCO1` came in with an IC50 of 73 nM. With `CC(C)(c1ccc(-n2nc(C(=O)N3CCOCC3)c3c2-c2ccccc2S(=O)(=O)C3)cc1)N1CCOCC1`, the IC50 was found to be 584 nM. Regarding `O=C(Nc1cccnc1)c1cccc(-n2nc(C(=O)N3CCOCC3)c3c2-c2ccccc2S(=O)(=O)C3)c1`, the IC50 was determined as 926 nM. This IC50 lies about 1.6-fold higher than the previous one.

Regarding `CC1CN(Cc2ccc(-n3nc(C(=O)N4CCOCC4)c4c3-c3ccccc3S(=O)(=O)C4)cc2)CCO1` (centres undefined), the IC50 worked out at 105 nM. In the case of `O=C1CCCN1CCN1CCC[C@H](n2nc(C(=O)N3CCOCC3)c3c2-c2ccccc2S(=O)(=O)C3)C1` it was 80 nM; in that of `O=C(Nc1cccc(-n2nc(C(=O)N3CCOCC3)c3c2-c2ccccc2S(=O)(=O)C3)c1)N1CCOCC1`, 3590 nM.

With `N#Cc1cccc(-n2nc(C(=O)N3CCOCC3)c3c2-c2ccccc2S(=O)(=O)C3)c1`, the IC50 was 376 nM.

For the origin of these results see the Kinase Knowledgebase extract (Sharma et al. 2016).
